Test results as given in patent USRE45173E1, “Inhibitors of CYP 17” (Novartis AG, priority 2009, dated 2014).
Counter-ions that a name gives are not always drawn.

Molecular target: recombinant human CYP17 enzyme (Homo sapiens (Human), UniProt P05093)
Test: Cytochrome P450, 17-20 lyase (CYP17-lyase) assay, tritiated acetic acid release from 17-α-hydroxy pregnenolone [21-3H]
Type: biochemical
Details: human CYP17, substrate 0.25 μM; read-out: Lyase IC 50 nM Human/Rat (Human)
Text: Assay method was adopted from a published protocol with some modifications to suit our requirements (Dmitry N Grigoryev et al, Analytical Biochemistry, (1999) 267, 319-330). […] Chloroform extraction removes the radioactive steroids and acetic acid is taken into aqueous layer. The tritiated acetic acid released in the assay thus extracted is quantified to determine the enzyme activity. […] The purified cell membrane preparations were used as the source for Human CYP17 enzyme. […] O, Nijar, et al., J Med Chem, (1998) 41, 902-912). […] Km for this substrate was determined by monitoring the tritiated acetic acid release as a function of substrate concentration. […] For the Km determination, the data was fit to a hyperbolic equation (Graphpad Prism® software IV). […] (Dmitry N. Grigoryev et al, Analytical Biochemistry (1999) 267, 319-330) […] NADPH is used at a final concentration of 4.2 mM. Total reaction volume was made up to 50 μL with 50 mM Phosphate buffer pH 7.5. The reaction mixture was incubated at room temperature for 90 minutes with gentle shaking. The reaction was stopped by the addition of 100 μL of buffer. 500 μL of 5% freshly prepared activated charcoal was added to the solution and mixed well by vortexing. The samples were centrifuged at 17568×g for 5 minutes. (14000 rpm). The supernatant was carefully transferred to fresh tube and 1.3 mL of scintillation fluid was added, mixed by vortexing. The radioactivity was measured in a 1450 MicroBeta TriLux™ scintillation counter from Wallac-Perkin Elmer®, USA. The measurements were carried out in 2.0 mL Eppendorforf™ tubes. […] The amount of tritiated acetic acid released is proportional to the lyase activity. Percent lyase activity in presence of inhibitor was calculated using the formula given below. […] Enzyme reaction in presence of inhibitor. • Positive control: […] For IC50 determination, the % inhibition was plotted as a function of inhibitor concentration. The data was fitted to sigmoidal equation using Graphpad Prism® software IV to generate IC50 values.

recombinant human CYP17 enzyme, sequence (P05093 whole entry): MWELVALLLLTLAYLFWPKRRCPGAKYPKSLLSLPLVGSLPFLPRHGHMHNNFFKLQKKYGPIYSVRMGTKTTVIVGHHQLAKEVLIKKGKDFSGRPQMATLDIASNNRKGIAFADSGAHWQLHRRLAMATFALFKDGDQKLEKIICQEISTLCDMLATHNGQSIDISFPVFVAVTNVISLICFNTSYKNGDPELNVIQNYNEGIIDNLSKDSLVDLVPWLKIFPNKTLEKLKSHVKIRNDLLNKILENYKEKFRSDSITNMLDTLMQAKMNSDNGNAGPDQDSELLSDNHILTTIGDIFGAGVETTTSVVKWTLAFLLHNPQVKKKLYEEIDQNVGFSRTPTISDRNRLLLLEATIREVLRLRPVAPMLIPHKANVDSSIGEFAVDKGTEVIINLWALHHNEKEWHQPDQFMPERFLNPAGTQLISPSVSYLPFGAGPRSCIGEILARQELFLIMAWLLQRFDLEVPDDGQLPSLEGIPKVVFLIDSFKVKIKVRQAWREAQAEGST

Question: Which IC50 does the source give for `Cc1ccncc1N1CCN(c2ccnc(Cl)c2)C1=O` [Example 58A, 1-(2-Chloro-pyridin-4-yl)-3-(4-methyl-pyridin-3-yl)-imidazolidin-2-one] here?
Answer: 27 nM

Question: With `Cc1ccncc1N1CCN(c2cccc(Cl)c2)C1=O` [Example 88A, 1-(3-Chloro-phenyl)-3-(4-methyl-pyridin-3-yl)-imidazolidin-2-one] as the compound, how does the IC50 read?
Answer: 12 nM

Question: Which IC50 does the source give for `N#Cc1ccncc1N1CCN(c2ccc3ncsc3c2)C1=O` [Example 129A] here?
Answer: 202 nM

Question: Which IC50 does the source give for `Cc1cc(N2CCN(c3cnccc3C)C2=O)ccn1` [Example 100A, 1-(4-Methyl-pyridin-3-yl)-3-(2-methyl-pyridin-4-yl)-imidazolidin-2-one] here?
Answer: 46 nM

Question: For `Cc1ccncc1N1CCN(c2ccc(F)c(C#N)c2)C1=O` [Example 103A, 2-Fluoro-5-[3-(4-methyl-pyridin-3-yl)-2-oxo-imidazolidin-1-yl]-benzonitrile], which IC50 is on record?
Answer: 19 nM

Question: How did the IC50 turn out when `Cc1ccncc1N1CCN(c2ccc3c(C(F)(F)F)n[nH]c3c2)C1=O` [Example 160A, 1-(4-methylpyridin-3-yl)-3-(3-(trifluoromethyl)-1H-indazol-6-yl)imidazolidin-2-one] was run?
Answer: 34 nM

Question: Which IC50 does the source give for `Cc1ccncc1N1C(=O)N(c2ccc3ncsc3c2)CC1C` (centres unmarked) [Example 167A, 1-Benzothiazol-6-yl-4-methyl-3-(4-methyl-pyridin-3-yl)-imidazolidin-2-one] here?
Answer: 38 nM

Question: Which IC50 does the source give for `Cc1ccncc1N1CCN(c2ccc3c(c2)C(C)(C)C(=O)N3CO)C1=O` [Example 147A, 1-Hydroxymethyl-3,3-dimethyl-5-[3-(4-methyl-pyridin-3-yl)-2-oxo-imidazolidin-1-yl]-1,3-dihydro-indol-2-one] here?
Answer: 346 nM

Question: `Cc1cc(-n2ccn(-c3cnccc3C)c2=O)cs1` [Example 92A, 1-(4-Methylpyridin-3-yl)-3-(5-methylthiophen-3-yl)-1H-imidazol-2(3H)-one] was tested. Which IC50 did it give?
Answer: 21 nM

Question: Which IC50 does the source give for `Cc1ccncc1N1CCN(c2csc3ccnc(Cl)c23)C1=O` [Example 99A, 1-(4-Chloro-thieno[3,2-c]pyridin-3-yl)-3-(4-methyl-pyridin-3-yl)-imidazolidin-2-one] here?
Answer: 22 nM

Question: With `Cc1ccncc1N1CCN(c2ccc(C(F)(F)F)s2)C1=O` [Example 155A, 1-(4-Methylpyridin-3-yl)-3-(5-(trifluoromethyl)thiophen-2-yl)-imidazolidin-2-one] as the compound, how does the IC50 read?
Answer: 2.7 nM

Question: `O=C1N(c2ccc3ncsc3c2)CCN1c1cnccc1Cl` [Example 84A, 1-Benzothiazol-6-yl-3-(4-chloro-pyridin-3-yl)-imidazolidin-2-one] was tested. Which IC50 did it give?
Answer: 85 nM

Question: For `Cc1ccncc1N1CCN(c2ccc3c(ccn3C)c2)C1=O` [Example 134A, 1-(1-Methyl-1H-indol-5-yl)-3-(4-methyl-pyridin-3-yl)-imidazolidin-2-one], which IC50 is on record?
Answer: 950 nM

Question: Which IC50 does the source give for `CC(O)c1ccncc1N1CCN(c2ccc3ncsc3c2)C1=O` (centres unmarked) [Example 158A, 1-(benzo[d]thiazol-6-yl)-3-(4-(1-hydroxyethyl)pyridin-3-yl)imidazolidin-2-one] here?
Answer: 38 nM

Question: Which IC50 does the source give for `Nc1ccncc1N1CCN(c2ccc3ncsc3c2)C1=O` [Example 152A, 1-(4-Amino-pyridin-3-yl)-3-benzothiazol-6-yl-imidazolidin-2-one Hydrochloride Salt] here?
Answer: 7 nM

Question: How did the IC50 turn out when `Cc1ccncc1N1CCN(c2ccc3c(N)n[nH]c3c2)C1=O` [Example 123A, 1-(3-Amino-1H-indazol-6-yl)-3-(4-methyl-pyridin-3-yl)-imidazolidin-2-one] was run?
Answer: 10 nM

Question: `Cc1ccncc1N1CCN(c2ccc3cccnc3c2)C1=O` [Example 162A, 1-(4-methylpyridin-3-yl)-3-(quinolin-7-yl)imidazolidin-2-one] was tested. Which IC50 did it give?
Answer: 317 nM

Question: How did the IC50 turn out when `Cc1ccncc1N1CCN(c2ccc(F)c(C(F)(F)F)c2)C1=O` [Example 90A, 1-(4-Fluoro-3-trifluoromethyl-phenyl)-3-(4-methyl-pyridin-3-yl)-imidazolidin-2-one] was run?
Answer: 5 nM

Question: `Cc1ccncc1N1CCN(c2ccc(Cl)c(F)c2)C1=O` [Example 54A, 1-(4-Chloro-3-fluoro-phenyl)-3-(4-methyl-pyridin-3-yl)-imidazolidin-2-one] was tested. Which IC50 did it give?
Answer: 15 nM

Question: For `Cc1cc(NCc2ccncc2N2CCN(c3ccc4ncsc4c3)C2=O)n[nH]1` [Example 182A, 1-Benzothiazol-6-yl-3-{4-[(5-methyl-1H-pyrazol-3-ylamino)-methyl]-pyridin-3-yl}-imidazolidin-2-one], which IC50 is on record?
Answer: 27 nM

Question: How did the IC50 turn out when `Cc1ccncc1N1CCN(c2ccccc2)C1=O` [Example 69A, 1-(4-Methyl-pyridin-3-yl)-3-phenyl-imidazolidin-2-one] was run?
Answer: 34 nM

Question: With `Cc1ccncc1N1CCN(c2cccc3ccccc23)C1=O` [Example 133A, 1-(4-Methyl-pyridin-3-yl)-3-naphthalen-1-O-imidazolidin-2-one] as the compound, how does the IC50 read?
Answer: 1970 nM

Question: `Cc1ccncc1N1CCN(c2cccc(C#N)c2)C1=O` [Example 106A, 3-[3-(4-Methyl-pyridin-3-yl)-2-oxo-imidazolidin-1-yl]-benzonitrile] was tested. Which IC50 did it give?
Answer: 35 nM

Question: How did the IC50 turn out when `Cc1ccncc1N1C(=O)N(c2ccc3ncsc3c2)C(C)C1C` (centres unmarked) [Example 175A, 1-Benzothiazol-6-yl-4,5-dimethyl-3-(4-methyl-pyridin-3-yl)-imidazolidin-2-one] was run?
Answer: 85 nM

Question: `Cc1ccncc1N1CCN(c2ccnc(N)c2)C1=O` [Example 76A] was tested. Which IC50 did it give?
Answer: 192 nM

Question: `Cc1ccncc1N1CCN(c2ccnc(N3CCCC3)c2)C1=O` [Example 85A, 1-(4-Methyl-pyridin-3-yl)-3-(2-pyrrolidin-1-yl-pyridin-4-yl)-imidazolidin-2-one] was tested. Which IC50 did it give?
Answer: 1260 nM

Question: Which IC50 does the source give for `Cc1ccc(N2CCN(c3cnccc3C)C2=O)s1` [Example 15A, 1-(4-Methyl-pyridin-3-yl)-3-(5-methyl-thiophen-2-yl)-imidazolidin-2-one] here?
Answer: 10 nM

Question: How did the IC50 turn out when `Cc1ccncc1N1CC(C)N(c2ccc3ncsc3c2)C1=O` (centres unmarked) [Example 166A, 3-Benzothiazol-6-yl-4-methyl-1-(4-methyl-pyridin-3-yl)-imidazolidin-2-one] was run?
Answer: 32 nM

Question: How did the IC50 turn out when `Cc1ccncc1N1CCN(c2ccc3oncc3c2)C1=O` [Example 113A, 1-Benzo[d]isoxazol-5-yl-3-(4-methyl-pyridin-3-yl)-imidazolidin-2-one] was run?
Answer: 230 nM

Question: Which IC50 does the source give for `CC1(C)CN(c2ccc3ncsc3c2)C(=O)N1c1cccnc1` [Example 164A, 1-Benzothiazol-6-yl-4,4-dimethyl-3-pyridin-3-yl-imidazolidin-2-one] here?
Answer: 70 nM

Question: Which IC50 does the source give for `Cc1ccncc1N1CCN(c2ccc3c(c2)OC(F)(F)O3)C1=O` [Example 64A, 1-(2,2-Difluoro-benzo[1,3]dioxol-5-yl)-3-(4-methyl-pyridin-3-yl)-imidazolidin-2-one] here?
Answer: 35 nM

Question: With `Cc1ccncc1N1CCN(c2ccc3c(c2)OCCO3)C1=O` [Example 49A, 1-(2,3-Dihydro-benzo[1,4]dioxin-6-yl)-3-(4-methyl-pyridin-3-yl)-imidazolidin-2-one] as the compound, how does the IC50 read?
Answer: 30 nM

Question: `Cc1ccncc1-n1ccn(-c2ccc3ncsc3c2)c1=O` [Example 142A, 1-Benzothiazol-6-yl-3-(4-methyl-pyridin-3-yl)-1,3-dihydro-imidazol-2-one] was tested. Which IC50 did it give?
Answer: 21 nM

Question: How did the IC50 turn out when `Cc1ccncc1N1CCN(c2ccn3c(Cl)cnc3c2)C1=O` [Example 145A, 1-(3-Chloro-imidazo[1,2-a]pyridin-7-yl)-3-(4-methyl-pyridin-3-yl)-imidazolidin-2-one] was run?
Answer: 31 nM

Same assay, conditions: human CYP17, substrate 0.25 μM; read-out: Lyase IC 50 Human/Rat (Human)

Question: How did the IC50 turn out when `Cc1ccc(N2CCN(c3ccc4ncsc4c3)C2=O)cn1` [Example 127A, 1-Benzothiazol-6-yl-3-(6-methyl-pyridin-3-yl)-imidazolidin-2-one] was run?
Answer: > 10000 nM

Question: For `COc1nccc2scc(N3CCN(c4cnccc4C)C3=O)c12` [Example 110A, 1-(4-Methoxy-thieno[3,2-c]pyridin-3-yl)-3-(4-methyl-pyridin-3-yl)-imidazolidin-2-one], which IC50 is on record?
Answer: > 10000 nM

Question: With `NC(=O)c1ccncc1N1CCN(c2ccc3ncsc3c2)C1=O` [Example 185A, 3-(3-Benzothiazol-6-yl-2-oxo-imidazolidin-1-yl)-isonicotinamide] as the compound, how does the IC50 read?
Answer: > 10000 nM

Question: For `Cc1ccncc1N1CCCN(c2ccc3ccccc3c2)C1=O` [Example 130A, 1-(4-Methyl-pyridin-3-yl)-3-naphthalen-2-yl-tetrahydro-pyrimidin-2-one], which IC50 is on record?
Answer: > 10000 nM

Question: `O=C1N(c2cnc3[nH]cnc3c2)CCN1c1ccc2ncsc2c1` [Example 183A, 1-Benzothiazol-6-yl-3-(3H-imidazo[4,5-b]pyridin-6-yl)-imidazolidin-2-one] was tested. Which IC50 did it give?
Answer: > 10000 nM

Question: `Cc1ccncc1N1CCN(c2cc3cnccc3s2)C1=O` [Example 120A, 1-(4-Methyl-pyridin-3-yl)-3-thieno[3,2-c]pyridin-2-yl-imidazolidin-2-one] was tested. Which IC50 did it give?
Answer: 4000 nM

Question: Which IC50 does the source give for `CC(C)(O)c1ccncc1N1CCN(c2ccc3ncsc3c2)C1=O` [Example 156A, 1-(benzo[d]thiazol-6-yl)-3-(4-(2-hydroxypropan-2-yl)pyridin-3-yl)imidazolidin-2-one] here?
Answer: > 10000 nM
